Assay results taken from patent US7605164B2, “Compositions and methods for treating heart failure” (Cytokinetics, Inc., priority 2001, dated 2009).

O=C(Nc1cc(Oc2cccnc2)cc(-c2ccccn2)c1)c1ccc(F)cc1 [Example 2, 4-Fluoro-N-[3-pyridin-2-yl-5-(pyridin-3-yloxy)-phenyl]-benzamide]
melting point: 160 to 162 °C
